Data: patent publication US20070157323A1, “In vivo odorant receptor systems and their uses” (priority 2003, published 2007)

Experiments:
generalist predator = conditions: volatiles released individually, Nicotiana attenuata; Kessler et al.; cited from earlier work
Angaracris barabensis = conditions: both sexes; Chen et al.; cited from earlier work
[1] = system: Oedaleus decorus asiaticus; conditions: both sexes; Chen et al.; cited from earlier work
V. pensylvanica = conditions: Davis et al.; MacDonald et al.; McGovern et al.; cited from earlier work
AgOr2 = molecular target: T1, AgOr2 (Anopheles gambiae, UniProt Q8WTE6); experiment: Single-unit electrophysiology of Drosophila ab3A neuron (Δhalo) expressing AgOr2; type: in vivo; conditions: liquid odors diluted 10^−4, solid odors 0.2 mg/ml in paraffin oil, 0.5 s pulse, FIG. 1b
T1 construct: expressed in transfected cells; host or cells: Transgenic Drosophila, ab3A olfactory receptor neuron lacking Or22a/Or22b (Δhalo), GAL4-UAS
T1 sequence (Q8WTE6 1-378): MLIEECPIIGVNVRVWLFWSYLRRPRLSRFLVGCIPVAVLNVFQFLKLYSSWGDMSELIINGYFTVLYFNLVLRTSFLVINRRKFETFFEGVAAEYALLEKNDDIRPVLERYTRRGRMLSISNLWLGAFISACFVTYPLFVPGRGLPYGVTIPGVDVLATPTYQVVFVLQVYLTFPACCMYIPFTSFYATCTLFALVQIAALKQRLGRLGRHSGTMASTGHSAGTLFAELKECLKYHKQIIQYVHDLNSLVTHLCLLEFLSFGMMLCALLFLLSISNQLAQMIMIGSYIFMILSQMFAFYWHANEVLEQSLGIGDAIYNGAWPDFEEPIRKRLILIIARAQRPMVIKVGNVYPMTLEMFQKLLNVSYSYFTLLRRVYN
T1 sequence (Q9VNB5 1-486 partner): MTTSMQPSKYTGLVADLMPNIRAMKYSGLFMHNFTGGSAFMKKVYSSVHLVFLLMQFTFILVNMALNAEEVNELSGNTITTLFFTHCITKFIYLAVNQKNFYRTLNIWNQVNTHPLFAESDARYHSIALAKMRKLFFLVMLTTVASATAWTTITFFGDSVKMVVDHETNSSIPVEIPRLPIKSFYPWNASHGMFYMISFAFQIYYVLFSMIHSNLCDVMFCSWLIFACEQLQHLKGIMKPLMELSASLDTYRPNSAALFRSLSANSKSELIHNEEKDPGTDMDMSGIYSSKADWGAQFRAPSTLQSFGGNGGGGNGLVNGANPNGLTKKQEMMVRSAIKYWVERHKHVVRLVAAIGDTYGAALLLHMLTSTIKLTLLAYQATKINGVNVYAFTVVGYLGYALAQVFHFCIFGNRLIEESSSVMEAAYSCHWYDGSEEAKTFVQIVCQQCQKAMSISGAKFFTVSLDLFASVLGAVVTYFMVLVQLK
Protocol: (§1) In summary, odorant receptors are introduced specifically into Δab3A using the GAL4/UAS system and Or22a-GAL4 is used to drive expression from a UAS-Or construct. The odorant response of the neuron (Δab3A:OrX) is assayed electrophysiologically.
(§2) To investigate the function of the A. gambiae odorant receptor genes AgOr1 and AgOr2 directly, these genes were expressed in the Drosophila olfactory receptor neuron that lacks odor response due to the deletion of its endogenous receptor genes, Or22a and Or22b using an Or22a promoter and the GAL4-UAS system.
(§3) AgOr1 and AgOr2 were expressed in the Δhalo background using the GAL4-UAS system. Specifically AgOr1 or AgOr2 was placed under the control of a UAS and expressed using the 22a-GAL4 driver so as to drive its expression in ab3A cells. […]
(§4) Action potentials of the ORNs in a sensillum were recorded by placing an electrode through the sensillum wall into contact with the lymph that bathes the dendrites. […] Recordings were analyzed offline in IGOR-Pro (WaveMetrics, Lake Oswego, Oreg.).
(§5) Odor stimuli were presented from Pasteur pipettes holding solutions of chemicals in paraffin oil on filter paper. […] Responses of the ab3A neurons were quantified by subtracting the number of impulses (i.e., spikes) in 500 ms of spontaneous activity from the number in the 500 ms after the onset of odor stimulation (FIG. 1).

[2] = system: Rhagoletis pomonella flies; conditions: Nojima et al.; cited from earlier work
AgOr1 = molecular target: T2, AgOr1 (Anopheles gambiae, UniProt Q8WTE7); experiment: Single-unit electrophysiology of Drosophila ab3A neuron (Δhalo) expressing AgOr1; type: in vivo; conditions: liquid odors diluted 10^−4, solid odors 0.2 mg/ml in paraffin oil, 0.5 s pulse, FIG. 1a
T2 construct: expressed in transfected cells; host or cells: Transgenic Drosophila, ab3A olfactory receptor neuron lacking Or22a/Or22b (Δhalo), GAL4-UAS
T2 sequence (Q8WTE7 1-417): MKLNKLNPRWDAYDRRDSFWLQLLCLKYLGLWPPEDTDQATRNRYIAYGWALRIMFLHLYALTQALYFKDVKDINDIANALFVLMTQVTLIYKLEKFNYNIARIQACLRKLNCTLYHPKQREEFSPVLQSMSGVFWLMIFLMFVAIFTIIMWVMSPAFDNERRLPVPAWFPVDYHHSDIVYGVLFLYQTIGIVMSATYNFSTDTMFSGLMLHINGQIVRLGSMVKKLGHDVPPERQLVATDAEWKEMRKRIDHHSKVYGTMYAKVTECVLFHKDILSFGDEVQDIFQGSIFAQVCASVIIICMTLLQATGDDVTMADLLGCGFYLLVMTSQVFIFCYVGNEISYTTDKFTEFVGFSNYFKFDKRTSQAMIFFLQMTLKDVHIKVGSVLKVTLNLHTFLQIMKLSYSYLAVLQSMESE
T2 sequence (Q9VNB5 1-486 partner): T1 sequence (Q9VNB5 1-486 partner)
Protocol: as §1, §2, §3, §4, §5

[3] = system: Glossina morsitans morsitans; conditions: Vale et al., 1988; cited from earlier work
Aper PBP1 = conditions: cited from earlier work
Apol PBP1a = conditions: 3H-labeled ligand; cited from earlier work
Apol PBP3 = conditions: 3H-labeled ligand; cited from earlier work
Aper PBP2 = molecular target: T3, Aper PBP2 (Antheraea pernyi, UniProt Q17078); conditions: cited from earlier work
T3 construct: from tissue; host or cells: Sensory hair homogenates of A. pernyi (study quoted from the literature)
T3 sequence (Q17078 23-164): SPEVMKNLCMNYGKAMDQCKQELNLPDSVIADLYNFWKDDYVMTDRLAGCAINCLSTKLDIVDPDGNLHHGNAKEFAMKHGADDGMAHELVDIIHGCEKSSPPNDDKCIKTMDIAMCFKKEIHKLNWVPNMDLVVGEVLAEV

ab3A neuron = conditions: cited from earlier work; for strongest responses of the A neuron: sensilla expressing Or22a and Or22b
B neuron = conditions: sensilla expressing Or22a and Or22b; cited from earlier work
lepidopteran = conditions: Nicotiana attenuata; Kessler et al.; cited from earlier work

For `CC(C)=CCC[C@]1(C)[C@H]2CC=C(C)[C@@H]1C2` (relative stereo) [cis-alpha-bergamotene], which “egg predation rates by a generalist predator” value (from here on “egg predation rates”) (generalist predator) is on record?
Its value is “increased egg predation rates”.

For `CCCCCCCO` [1-heptanol], which EAG responses (Angaracris barabensis) is on record?
The EAG responses was “Strong EAG responses”.

And the EAG responses [1]?
Its EAG responses is “Strong EAG responses”.

For `CCCCCCO` [1-hexanol], which EAG responses (Angaracris barabensis) is on record?
Its EAG responses is “Strong EAG responses”.

What about the EAG responses [1] of the same compound?
The EAG responses was “Strong EAG responses”.

For `CC=CC=CCOC(=O)CCC` [2,4-Hexadienyl butyrate], which “attraction of V. pensylvanica” value (V. pensylvanica) is on record?
The value was “attract”.

For `CC=CC=CCOC(=O)C(C)C` [2,4-hexadienyl isobutyrate], which “attraction of V. pensylvanica” value (V. pensylvanica) is on record?
The value was “attract”.

For `CC=CC=CCOC(=O)CC` [2,4-hexadienyl propionate], which “attraction of V. pensylvanica” value (V. pensylvanica) is on record?
The value was “attract”.

With `Cc1ccccc1O` [2-methylphenol] as the compound, how does the “odor response conferred by AgOr2” value (AgOr2) read?
Its value is “strong response”.

With `CC(C)CCO` [3-methylbutan-1-ol] as the compound, how does the EAD activity [2] read?
The EAD activity was “Consistent EAD activity”.

For `C=C/C=C(\C)CCC=C(C)C` [4,8-dimethyl-1,3(E),7-nonatriene], which EAD activity [2] is on record?
The EAD activity was “Consistent EAD activity”.

Which results are given for `Cc1ccc(O)cc1` [4-methylphenol]?
odor response conferred by AgOr2 (AgOr2): not; odor response of mutant flies expressing AgOr1 (AgOr1): strong response; effectiveness of traps for the tsetse fly [3]: increase the effectiveness of traps

What does the source list for `CCCC/C=C\CCC/C=C/CCCCCOC(C)=O` [AC1, (E,Z)-6,11-hexadecadienyl acetate]?
binding affinity to Aper PBP1 (Aper PBP1): showed binding affinity; binding to Apol PBP1a (Apol PBP1a): bound; binding to Apol PBP3 (Apol PBP3): bound

Which “binding to Apol PBP1a” value (Apol PBP1a) does the source give for `CCCC/C=C\CCC/C=C/CCCCC=O` [ALD, (E,Z)-6,11-hexadecadienal] here?
The value was “no binding”.

What about the “binding affinity to Aper PBP2” value (Aper PBP2) of the same compound?
Its value is “showed binding affinity”.

What about the “binding to Apol PBP3” value (Apol PBP3) of the same compound?
Its value is “no binding”.

Which results are given for `CCC/C=C/C=O` [E-2-hexen-1-al]?
EAG responses (Angaracris barabensis): Strong EAG responses; EAG responses [1]: Strong EAG responses

With `CCC/C=C/CO` [E-2-hexen-1-ol] as the compound, how does the EAG responses (Angaracris barabensis) read?
The EAG responses was “Strong EAG responses”.

What about the EAG responses [1] of the same compound?
Its EAG responses is “Strong EAG responses”.

For `CC/C=C/CCO` [E-hexen-3-ol-1], which EAG responses (Angaracris barabensis) is on record?
Its EAG responses is “Strong EAG responses”.

What about the EAG responses [1] of the same compound?
Its EAG responses is “Strong EAG responses”.

What does the source list for `CCC/C=C\CO` [Z-hexen-2-ol-1]?
EAG responses (Angaracris barabensis): Strong EAG responses; EAG responses [1]: Strong EAG responses

Which EAG responses (Angaracris barabensis) does the source give for `CC/C=C\CCOC(C)=O` [Z-hexen-3-yl acetate] here?
The EAG responses was “Strong EAG responses”.

And the EAG responses [1]?
Its EAG responses is “Strong EAG responses”.

With `CCCCCC(=O)OCCCC` [butyl hexanoate] as the compound, how does the EAD activity [2] read?
Its EAD activity is “Consistent EAD activity”.

Which “egg predation rates” value (generalist predator) does the source give for `CC/C=C\CCO` [cis-3-hexen-1-ol] here?
The value was “increased egg predation rates”.

For `CC(=O)CCC1=C(C)CCCC1(C)C` [dihydro-beta-ionone], which EAD activity [2] is on record?
Its EAD activity is “Consistent EAD activity”.

For `CCOC(C)=O` [ethyl acetate], which “strongest responses of the A neuron” value (ab3A neuron) is on record?
Its value is “strongest responses”.

What about the EAD activity [2] of the same compound?
The EAD activity was “Consistent EAD activity”.

For `CCCC(=O)OCC` [ethyl butyrate], which “sensitivity of ab3A” value (ab3A neuron; in vivo) is on record?
The value was “highly sensitive”.

What about the “strongest responses of the A neuron” value (ab3A neuron) of the same compound?
The value was “strongest responses”.

Which “strongest responses of the B neuron” value (B neuron) does the source give for `CCCCCC(C)=O` [heptanone] here?
The value was “strongest responses”.

Which “attraction of V. pensylvanica” value (V. pensylvanica) does the source give for `CCCCCCCOC(=O)CCC` [heptyl butyrate] here?
The value was “attract”.

Which “strongest responses of the B neuron” value (B neuron) does the source give for `CCCCCCO` [hexanol] here?
Its value is “strongest responses”.

For `CC(=O)OCCC(C)C` [isoamyl acetate], which EAD activity [2] is on record?
The EAD activity was “Consistent EAD activity”.

With `C=CC(C)(O)CCC=C(C)C` (stereo not shown) [linalool] as the compound, how does the “egg predation rates” value (generalist predator) read?
Its value is “increased egg predation rates”.

And the lepidopteran oviposition rates (lepidopteran)?
Its lepidopteran oviposition rates is “decreased lepidopteran oviposition rates”.

With `C=CC(O)CCCCC` (stereo not shown) [octenol] as the compound, how does the “strongest responses of the B neuron” value (B neuron) read?
Its value is “strongest responses”.

Which “attraction of V. pensylvanica” value (V. pensylvanica) does the source give for `CCCCCCCCOC(=O)CCC` [octyl butyrate] here?
Its value is “attract”.

With `CCCCCOC(C)=O` [pentyl acetate] as the compound, how does the “strongest responses of the A neuron” value (ab3A neuron) read?
The value was “strongest responses”.
